Measured values reported in BindingDB's records for doi:10.1016/j.bmc.2007.01.044 (University of San Francisco, 2007).

target: T1, UDP-3-O-acyl-N-acetylglucosamine deacetylase (Aquifex aeolicus (strain VF5), UniProt O67648); assay: Ligand Affinity Measurements; conditions: pH 7; 30 °C
T1 sequence (O67648 whole entry): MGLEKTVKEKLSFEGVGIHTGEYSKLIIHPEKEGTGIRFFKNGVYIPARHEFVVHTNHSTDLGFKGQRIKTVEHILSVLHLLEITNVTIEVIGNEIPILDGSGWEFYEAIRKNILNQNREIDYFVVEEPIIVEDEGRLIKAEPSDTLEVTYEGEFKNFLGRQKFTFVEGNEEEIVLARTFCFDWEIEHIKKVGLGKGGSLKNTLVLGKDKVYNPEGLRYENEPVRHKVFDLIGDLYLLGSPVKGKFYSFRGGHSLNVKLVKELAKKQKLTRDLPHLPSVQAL
Procedure: Ligand binding to A. aeolicus LpxC was assayed by isothermal titration using isothermal microcalorimeter from Microcal, Inc. (Northampton, MA). The enzyme was stripped of all metal ions, and was reconstituted with Zn2+ (1:1 ratio) by the addition of ZnSO4. The calorimeter cell contained enzyme (40 or 60 uM), and the syringe contained ligand (250 or 400 uM). A series of 30 injections of 8 ul each were performed at 180-s intervals. Titrations of aliphatic compounds into buffer were also performed as control experiments using identical conditions. Data were fit to a single binding site model using Origin v. 2.9.

Kd	SMILES
> 100 µM	CCCCCCCC(=O)O [octanoic acid]
7 µM	CCCCCCCCCC(=O)O [decanoate]
0.9 µM	CCCCCCCCCCCC(=O)O [dodecanoate]
